According to publication PMC8971402, “Author Correction: Effects of route of administration on oxytocin-induced changes in regional cerebral blood flow in humans” (Nature Communications, 2022):
Values joined by “and” are separate entries in the source; they are usually repeats but may differ in a detail not shown here. Identical values can stand only once.

How the values were obtained:
[1] = tested on: heart rate and heart rate variability; set-up: species or system humans; details: in vivo, iv
Protocol: Supplementary Table 4 – Percentage of observations satisfying quality control criteria for
the pulse plethysmography analysis. Following current recommendations for heart rate data
processing and analysis, if more than 5% of the beats required correction, then we decided to
exclude these periods of observation. In some rare cases where artefacts could not be corrected,
we only included the data if at least 5 min of acquisition free of artefacts could be analysed. In
this table, we present the percentage of total data available satisfying our quality control criteria
for each treatment method of administration and time-interval, so the reader can appreciate the
amount of data effectively used in the final analysis.
Time from last drug administration offset (minutes)
We determined time-interval, treatment, and treatment
x time-interval effects on a set of time domain (heart-rate (HR) and the root mean square of the successive differences (RMSSD), frequency domain
(low (LF) and high (HF) frequencies spectral powers and high/low frequency spectral power ratio (HF/LF)) and non-linear (Approximate entropy
(ApEn), the SD1 and SD2 lines from the Poincare Plot and the detrended fluctuation scaling exponents DFAα1 and DFAα2) analysis measures of
heart rate variability. We used a repeated measures two-way analysis of variance, using subjects, treatment and time as factors, and the Greenhouse- […]

[2] = in vivo
Text: We present a summary of three
(§1) parameters describing the pharmacokinetics of each treatment administration method. We
(§2) present the maximum plasmatic concentration achieved after dosing (Cmax), the area under the
(§3) curve (AUC) reflecting the magnitude of the variations of plasmatic oxytocin post-dosing and
(§4) the absolute bioavailability of oxytocin absorbed to the plasma, calculated as the dose-corrected
(§5) AUC of each intranasal administration divided by the dose-corrected AUC of the intravenous
(§6) administration. Data are presented as mean (1 standard error of the mean).

[3] = Pharmacokinetics of plasmatic oxytocin after intravenous, nasal spray or nebulizer administration; details: for Concentration (plasma oxytocin): Condition IV, individual participants (Fig6A source data); for Bioavailability: individual participants, corrected source data (Fig6C)
Text: We present a summary of three
as §1, §2, §3, §4, §5, §6

CC[C@H](C)[C@@H]1NC(=O)[C@H](Cc2ccc(O)cc2)NC(=O)[C@@H](N)CSSC[C@@H](C(=O)N2CCC[C@H]2C(=O)N[C@@H](CC(C)C)C(=O)NCC(N)=O)NC(=O)[C@H](CC(N)=O)NC(=O)[C@H](CCC(N)=O)NC1=O [oxytocin]
Effect on heart rate and heart rate variability [1]: did not affect heart rate or heart rate variability
AUC over the observation interval, intravenous OT infusion vs intranasal methods [2]: significantly higher AUC
Concentration (plasma oxytocin) ([3]; Sample 2, in pg/mL): 65.12 and 59.67 and 47.11
Concentration (plasma oxytocin) ([3]; Sample 3): 0.0681 ng/mL
Concentration (plasma oxytocin) ([3]; Sample 4): 0.0539 ng/mL
Concentration (plasma oxytocin) ([3]; Sample 4, in pg/mL): 30.93
Concentration (plasma oxytocin) ([3]; Sample 6, in pg/mL): 12.86 and 20.71
Concentration (plasma oxytocin) ([3]; Sample 7): 0.00723 ng/mL and 0.00461 ng/mL
Concentration (plasma oxytocin) ([3]; Sample 8): 0.00377 ng/mL
Bioavailability ([3]; Nebuliser): 31.90% and 10.30% and 3.30% and 7.94% and 12.67% and 62.94% and 5.39% and 6.53% and 8.236% and 4.17% and 6.07% and 5.20% and 6.82% and 10.22% and 6.95% and 32.80%
Bioavailability ([3]; Spray): 6.85% and 11.96% and 5.38% and 16.81% and 5.32% and 6.16% and 8.93% and 4.67% and 8.4323% and 12.50% and 14.77% and 6.29% and 7.56% and 11.34% and 5.36% and 37.05%
Absolute bioavailability of OT absorbed to the plasma, standard nasal spray vs PARI SINUS nebulizer ([3]; corrected AUCs, paired t-test p = 0.438): no significant differences
Cmax ([3]; human, in vivo, iv, SEM): 0.0643 ng/mL
